Entries after “also recorded” stand apart in the source; their conditions may differ. Read-outs that look alike come from different tables or passages of the source.
Key:
[1] = in vitro; conditions: human
Description: (§1) Cell viability was evaluated using the MTS assay system (CellTiter 96 AQueous One Solution Cell Proliferation Assay, Promega, Madison, WI, USA).
(§2) real-time qRT-PCR in cells harvested at 6 dpi (black bars). Cell viability was measured
(§3) by the MTS assay (black line with a triangle). i. […]
(§4) non-adherent phase (black columns) in the presence of 0, 10 or 30 nM proscillaridin A. […]

[2] = test system: HepG2/NTCPA3 cells; experiment: in vitro
Description: as §1, §2, §3, §4

[3] = test system: HBV; experiment: Inhibition of HBV infection of non-adherent HepG2/NTCPA3 cells (intracellular HBV RNA, real-time qRT-PCR); type: cell-based, Hepatitis B virus (genotype D); conditions: for IC50: Hepatitis B virus, read-out: IC50 (anti-HBV activity); for Selectivity Index: SI from CC50 and IC50
Description: In the case of the non-adherent cell conditions of infection, HepG2 cells, the derived cells, or differentiated HepaRG cells were harvested using 0.25% trypsin/ethylenediaminetetraacetic acid (EDTA) solution (Sigma). After washing once with 10% FBS-DMEM, the resulting cells were suspended in the primary hepatocyte maintenance medium (PMM) consisting of William’s E medium (Sigma) supplemented with 2 mM L-glutamine, 5 μg/ml transferrin (Sigma), 10 ng/ml recombinant human epidermal growth factor (PeproTech, Rocky Hill, NJ, USA), 3 μg/ml insulin, 18 μg/ml hydrocortisone, 40 ng/ml dexamethasone (Sigma), 5 ng/ml sodium selenite (Sigma), 2% DMSO (Wako), 100 U/ml penicillin, and 100 μg/ml streptomycin (Gibco). The suspended cells (1.25 × 10^5 cells) were added to each well following the addition of virus, and were then immediately mixed well in 0.5 ml of PMM supplemented with 4% polyethylene glycol (PEG) 8000 (Sigma) and 2% FBS in each well of a 24-well collagen-coated plate. The resulting mixtures were incubated at 37 °C (0 days post-infection, dpi).
The cells infected in non-adherent or adherent phase were washed three times with phosphate-buffered saline (PBS) at 1 dpi and incubated in fresh PMM supplemented with 10% FBS. The cells were re-seeded at 2 dpi at a density of 2 × 10^4 cells/well (48-well collagen-coated plate) or 4 × 10^4 cells/well (24-well collagen-coated plate) and maintained in PMM supplemented with 10% FBS. The cells and the culture supernatants were collected at each indicated dpi in order to evaluate the amounts of viral proteins, RNA, and DNA.
Simvastatin, proscillaridin A, bufalin, convallatoxin, digitoxin, digoxin, and azelastine were purchased from Sigma. Fluvastatin was from Cayman Chemical Co. (Ann Arbor, MI, USA). The lipopeptide myr-47WT, which is an N-terminally myristoylated peptide consisting of aa 2 to 47 of the preS1 region of HBV, and myr-47N9K, in which Asn at the 9th position is substituted with Lys, were synthesized by Scrum Co. (Tokyo, Japan)[11]. […] These cells (1 × 10^6 cells/ml) were preincubated at room temperature for 1 h in PMM supplemented with a peptide at 400 nM or a compound at the indicated concentration, and were then infected with HBV at 1,000 GEq/cell in the presence of the preS1 peptide or compounds at the same concentration as in the preincubation. The resulting cells were washed three times with PBS at 1 dpi and incubated in fresh PMM supplemented with 10% FBS. Cells were then re-seeded at 2 dpi at a density of 2 × 10^4 cells/well (48-well plate) or 4 × 10^4 cells/well (24-well plate) and maintained in PMM supplemented with 10% FBS. The resulting cells and culture supernatants were collected at each indicated dpi in order to evaluate viral RNA and DNA.
(§5) Total RNA was extracted using the RNeasy Mini Kit (Qiagen, Valencia, CA, USA), followed by DNase digestion using the TURBO DNA-free kit (Ambion, Austin, TX, USA). The resulting RNA preparation was reverse-transcribed using ReverTra Ace qPCR RT Master Mix (TOYOBO, Tokyo, Japan) according to the manufacturer’s protocol. Viral DNA was extracted from culture supernatants using the QIAamp DNA Mini Kit (Qiagen) according to the manufacturer’s protocol. The amounts of viral DNA and RNA were measured by real-time quantitative PCR (qPCR) and real-time quantitative reverse transcriptase (qRT)-PCR, respectively. The amounts of intracellular HBV RNA and supernatant HBV DNA were estimated according to the method described by Yan et al.[11]. The amounts of NTCP and GAPDH mRNAs were estimated by real-time qRT-PCR using the primer pairs 5′-[…]-3′ and 5′-[…]-3′, and 5′-[…]-3′ and 5′-[…]-3′, respectively. Real-time PCR was carried out using the Fast SYBER Green Master Mix (Applied BioSystems) and StepOne Plus Real-Time PCR System (Applied BioSystems). The amounts of HBs and HBe antigens in culture supernatants were estimated by a chemiluminescent immunoassay (SRL Inc., Tokyo, Japan).
Supplementary Figure 4. […]

[4] = test system: HBV; experiment: Effect on HBV replication, compound added after infection (intracellular HBV RNA); type: cell-based, Hepatitis B virus (genotype D); conditions: compound added at 3 dpi, harvested at 6 dpi, HepG2/NTCPA3, HBV 1,000 GEq/cell
Description: The resulting cells were harvested at 6 dpi. The amount of intracellular HBV RNA was quantified by real-time qRT-PCR (black bars) and is presented as the percentage of the control value (DMSO). Cell viability was evaluated (gray bars). Data were calculated from 3 to 5 independent experiments and are expressed as means ± SD.
as §5, with “The amounts of HBs and HBe antigens in culture supernatants were estimated by a chemiluminescent immunoassay (SRL Inc., Tokyo, Japan).” left out

[5] = test system: HBV; experiment: Supernatant HBe antigen after HBV infection in the presence of compound (chemiluminescence immunoassay); type: cell-based, Hepatitis B virus (genotype D); conditions: non-adherent HepG2/NTCPA3 cells, HBV 1,000 GEq/cell, supernatant at 12 dpi
Description: as §5
Cell viability was measured
Culture supernatants were collected at
antigen was quantified by a chemiluminescence immunoassay. j. HepG2/NTCPA3 cells

[6] = test system: NTCP; conditions: read-out: IC50 for inhibition of NTCP-mediated taurocholic acid uptake; cited from earlier work
[7] = target: T1, NTCP (Homo sapiens, UniProt Q14973); experiment: Competitive binding assay: compounds versus myr-47WT binding to HepG2/NTCPA3 cells (FACS); conditions: compounds at 10 μM (proscillaridin A 10 to 100 μM)
T1 construct: expressed in transfected cells; plasmid pEF pGKpuro, puromycin selection
T1 sequence (Q14973 1-349): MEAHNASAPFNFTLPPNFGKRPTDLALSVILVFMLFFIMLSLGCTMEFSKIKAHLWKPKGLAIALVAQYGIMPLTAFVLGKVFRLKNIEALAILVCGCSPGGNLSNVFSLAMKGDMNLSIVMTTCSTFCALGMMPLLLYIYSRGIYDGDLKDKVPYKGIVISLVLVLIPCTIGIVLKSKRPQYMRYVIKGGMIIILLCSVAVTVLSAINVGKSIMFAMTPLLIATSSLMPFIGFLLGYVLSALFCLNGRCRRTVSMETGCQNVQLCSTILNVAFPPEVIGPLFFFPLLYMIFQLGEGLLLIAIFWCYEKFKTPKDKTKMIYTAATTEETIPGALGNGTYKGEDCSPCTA
Description: After washing twice with 2% FBS/PBS, the resulting cells were analyzed by FACS analysis.
Supplementary Figure 5. Effects of compounds on the binding ability of preS1 lipopeptide to HepG2/NTCPA3 cells. a and b. HepG2/NTCPA3 cells were pretreated with DMSO for 30 min and then were treated with myr-47N9K (a) or myr-47WT (b) in the presence of DMSO for an additional 30 min. The resulting cells were subjected to FACS analysis. c to h. HepG2/NTCPA3 cells were pretreated with the indicated concentration of each compound for 30 min and then were treated with myr-47WT in the presence of each compound for an additional 30 min. […]
fluvastatin (d), proscillaridin A (e, f and g), and azelastine (h) on preS1 binding were analyzed using FACS analysis, as described in the Materials and Methods section.
(1 picture or pasted object on this page, not shown here)

[8] = non-adherent HepG2/NTCPA3 cells, HBV 1,000 GEq/cell, compound from 1 h pre-infection to 1 dpi, HBV RNA at 6 dpi
[9] = non-adherent HepG2/NTCPA3 cells, compound from 1 h pre-infection to 1 dpi

Row | SMILES | CC50 [1] [nM] | IC50 [3, 8] [nM] | Inhibition of HBV infection (in words) [3, 9] | IC50 ([3]; HepG2, 1 h) [nM] | Selectivity Index [3] | also measured
1 | CC(C)n1c(/C=C/C(O)CC(O)CC(=O)O)c(-c2ccc(F)cc2)c2ccccc21 (stereo not drawn) [Fluvastatin] | > 100000 | > 30000 | did not inhibit; also recorded: not by treatment with fluvastatin | – | – | Cytotoxicity (in words) [2]: not cytotoxic
2 | C[C@]12CC[C@H](O)C[C@H]1CC[C@@H]1[C@@H]2CC[C@]2(C)[C@@H](c3ccc(=O)oc3)CC[C@]12O [Bufalin] | 479 ± 64.7 | – | inhibited HBV infection in a dose-dependent manner | 32.4 ± 11.3 | 15.8 ± 4.3 | Inhibition of HBV infection (in words) ([3]; non-adherent HepG2/NTCPA3 cells, compound from 1 h pre-infection to 1 dpi, listed as bufalin): inhibited HBV infection
3 | C[C@H]1O[C@@H](O[C@H]2[C@@H](O)C[C@H](O[C@H]3[C@@H](O)C[C@H](O[C@H]4CC[C@@]5(C)[C@H](CC[C@@H]6[C@@H]5C[C@@H](O)[C@]5(C)[C@@H](C7=CC(=O)OC7)CC[C@]65O)C4)O[C@@H]3C)O[C@@H]2C)C[C@H](O)[C@@H]1O [Digoxin] | 1430 ± 277 | > 100 | did not inhibit HBV infection | – | – | –
4 | CCC(C)(C)C(=O)O[C@H]1C[C@@H](C)C=C2C=C[C@H](C)[C@H](CC[C@@H]3C[C@@H](O)CC(=O)O3)[C@H]21 [Simvastatin] | > 30000 | – | – | 5200 ± 600 | – | Amount of HBV RNA in cells treated after infection [4]: not decreased; also recorded: did not exhibit an inhibitory effect on the viral replication; Inhibition of HBV infection (in words) [3]: inhibited HBV infection
5 | C[C@@H]1O[C@@H](O[C@@H]2C=C3CC[C@@H]4[C@H](CC[C@]5(C)[C@@H](c6ccc(=O)oc6)CC[C@]45O)[C@@]3(C)CC2)[C@H](O)[C@H](O)[C@H]1O [Proscillaridin A] | 496 ± 140 | 7.2 ± 2.5 | inhibited HBV infection | – | 75.5 ± 26.7 | Amount of supernatant HBe antigen [5]: reduced; IC50 [6]: 22000 nM; Amount of HBV RNA in cells treated after infection [4]: not decreased; also recorded: did not exhibit an inhibitory effect on the viral replication; Anti-HBV effect in non-adherent cells compared with adherent cells ([3]; 0, 10 or 30 nM, HBV 1,000 GEq/cell, HBV RNA): similar; Effect on binding of myr-47WT (200 nM) to the cell surface of HepG2/NTCPA3 [7]: negligible effect
6 | C[C@@H]1O[C@@H](O[C@H]2CC[C@]3(C=O)[C@H]4CC[C@]5(C)[C@@H](C6=CC(=O)OC6)CC[C@]5(O)[C@@H]4CC[C@]3(O)C2)[C@H](O)[C@H](O)[C@H]1O [Convallatoxin] | 156 ± 53.8 | – | inhibited HBV infection in a dose-dependent manner | 10.7 ± 3.6 | 15.7 ± 4.7 | –
7 | CN1CCCC(n2nc(Cc3ccc(Cl)cc3)c3ccccc3c2=O)CC1 (stereo not drawn) [Azelastine] | > 30000 | > 30000 | – | – | – | Inhibitory effect on HBV infection (in words) ([3]; at 0.01 to 1 μM, non-adherent HepG2/NTCPA3 cells): moderate and significant inhibitory effects
8 | C[C@H]1O[C@@H](O[C@H]2[C@@H](O)C[C@H](O[C@H]3[C@@H](O)C[C@H](O[C@H]4CC[C@@]5(C)[C@H](CC[C@@H]6[C@@H]5CC[C@]5(C)[C@@H](C7=CC(=O)OC7)CC[C@]65O)C4)O[C@@H]3C)O[C@@H]2C)C[C@H](O)[C@@H]1O [Digitoxin] | 1730 ± 384 | 93.3 ± 15.3 | inhibited HBV infection in a dose-dependent manner | – | 18.9 ± 3.4 | –

— publication PMC4655410, “Hepatitis B virus efficiently infects non-adherent hepatoma cells via human sodium taurocholate cotransporting polypeptide” (Scientific Reports, 2015)
